One substance from patent US8173428B2, “LNA oligonucleotides and the treatment of cancer” (Santaris Pharma A/S, priority 2004, dated 2012) can be followed below.

Oligonucleotides are written 5' to 3', each unit as a sugar letter and its base; * is a phosphorothioate linkage, no mark a phosphodiester; rarer units and linkages stand in square brackets, end groups in braces. Plain capitals give the bases only. l = locked nucleic acid (LNA); [5mC] = 5-methylcytosine; d = 2'-deoxy (DNA)

In series [1] the test system is 15PC3 cells. Description: Caspase 3/7 activity (apoptosis) in transfected 15PC3 cells. It counts as cell-based, human. The protocol:
Culturing of cells: 15PC3 was cultured in DMEM (Sigma) containing 10% fetal bovine serum, Glutamax I and gentamicin at 37° C., 95% humidity and 5% CO2. The cervical carcinoma cell line HeLa were cultured in MEM (Sigma) containing 10% fetal bovine serum, Glutamax I and gentamicin at 37° C., 95% humidity and 5% CO2. When reaching 60-70% confluency, the cells were transfected using Lipofectamine 2000 (5 μg/ml).
15PC3 cells were seeded to a density of 10000 cells per well in white 96-well plates (Nunc 136101) in DMEM the day prior to transfection. The next day cells were washed once in prewarmed OptiMEM followed by addition of 72 μl OptiMEM containing 5 μg/ml Lipofectamine-2000 (In vitrogen). Cells were incubated for 7 min before adding 18 μl oligonucleotides diluted in OptiMEM. The final oligonucleotide concentration ranged from 0.2 nM to 100 nM. After 4 hours of treatment, cells were washed in OptiMEM and 100 μl DMEM containing serum was added. Following oligonucleotide treatment, cells were allowed to recover for the period indicated before they were removed from the CO2 incubator and equilibrated to room temperature for 15 min. 100 μl of the highly sensitive Caspase 3/7-Glo™ Reagent (Promega) was added directly to the cells, and the plates were incubated for 20 min. Luminescence (luciferase activity) was recorded in a Luminoskan Ascent instrument (Thermo Labsystems). The luciferase activity is measured as Relative Light Units per seconds (RLU/s). The data was analysed using the Ascent software 2.4.2. Graphs of fold induction relative to mock were generated using MS Excel.
Staurosporine, Camptothecine or Taxol induced cells served as positive controls (see FIGS. 3, 6A and Table 4 plus Example 21).

For series [2], the system named is cynomolgus monkeys. Description: i.v. MTD study in cynomolgus monkeys. It counts as in vivo. The note with it: dose escalation up to 160 mg/kg×3 (total 930 mg/kg) or 120 mg/kg×5 over 2 weeks. On the procedure: The animals were treated with either a dose escalating design with a maximum dose of 160 mg/kg×3 (total dose of 930 mg/kg) or a 120 mg/kg×5 over 2 weeks.

Series [3] relates to Survivin protein. The series can be described thus: Tumour analysis: Survivin protein by Western blotting after intratumoural injection. It is filed as in vivo, Balb/cA-nu mice. To be noted: 25 mg/kg intratumoral, 6 times over 2 weeks, sampling 24 hours after last dose, versus saline. On the procedure: (§1) Model: PC-3 human prostate cancer cells (ECACC) are mixed with Matrigel and injected s.c. into both flanks of female Balb/cA-nu mice on Day 0.
(§2) Administration: Oligonucleotides i.p. (see FIG. 8) or intratumoural (see FIG. 9), Taxol i.v., all according to schedule
cDNA synthesis: First strand synthesis was performed using OmniScript Reverse Transcriptase kit according to the manufacturer's instructions (Qiagen). […] Protein levels were analysed on individual tumours by western blotting (see FIG. 9). Real time PCR analysis: To determine the relative Survivin mRNA level treated and untreated tumours, the generated cDNA was used in quantitative PCR analysis using an iCycler from BioRad. The cDNA was diluted 5-fold and 8 μl was mixed with 52 μl Taqman probe master mix containing 30 μl Platinum Quantitative PCR SuperMix UDG 2×PCR master mix (Invitrogen), 3 μl 20× Taqman probe and primer mix (forward primer: 5′-[…]-3′ (SEQ ID NO. 29), final 0.9 μM. Reverse primer: 5′-[…]-3′ (SEQ ID NO. 30), final 0.6 μM and taqman probe: FAM-5′-[…]-TAMRA-3′ (SEQ ID NO. 31), final 0.1 μM) and 19 μl H2O. […] To normalize any variance in sample preparation, the endogenous GAPDH mRNA was quantified using a pre-developed Taqman assay reagent from Applied Biosystems (4310884E) according to manufacture's instructions. […] Total protein concentrations were measured using a BCA protein assay kit (Pierce). […]
For orientation: In western blotting, separated proteins are transferred to a membrane and probed.

In series [4] the test system is Survivin mRNA. The series can be described thus: Tumour analysis: Survivin mRNA after intratumoural injection. It is filed as in vivo, Balb/cA-nu mice. To be noted: 25 mg/kg intratumoral, 6 times over 2 weeks, sampling 24 hours after last dose, versus saline. The protocol: as §1, §2
Total RNA isolation: Approximately 20 mg tumour tissue was homogenized in 400 μl RTL buffer (Qiagen) supplemented with 1% mercaptoethanol. Total RNA was isolated using RNeasy mini kit (Qiagen) according to the manufacture's instructions.
cDNA synthesis: First strand synthesis was performed using OmniScript Reverse Transcriptase kit according to the manufacturer's instructions (Qiagen). […] Protein levels were analysed on individual tumours by western blotting (see FIG. 9). Real time PCR analysis: To determine the relative Survivin mRNA level treated and untreated tumours, the generated cDNA was used in quantitative PCR analysis using an iCycler from BioRad. The cDNA was diluted 5-fold and 8 μl was mixed with 52 μl Taqman probe master mix containing 30 μl Platinum Quantitative PCR SuperMix UDG 2×PCR master mix (Invitrogen), 3 μl 20× Taqman probe and primer mix (forward primer: 5′-[…]-3′ (SEQ ID NO. 29), final 0.9 μM. Reverse primer: 5′-[…]-3′ (SEQ ID NO. 30), final 0.6 μM and taqman probe: FAM-5′-[…]-TAMRA-3′ (SEQ ID NO. 31), final 0.1 μM) and 19 μl H2O. […]

“5′-^MeCsTs^MeCsAsastscscsastsgsgs^MeCsAsGsc-3′ (l[5mC]*lT*l[5mC]*lA*dA*dT*dC*dC*dA*dT*dG*dG*l[5mC]*lA*lG*dC) [SEQ ID NO. 2]”: the “Apoptosis At 5 nM, 24 hours” value in series [1] (5 nM, 24 hours (Table 7, FIG. 3)) is 3.5-fold. Besides, in series [1] (25 nM, 24 hours (Table 7)), the “Max Apoptosis” value was 6.5-fold. Further, the “Maximum Induction Fold-induction of apoptosis, Caspase 3/7 assay” value in series [1] (25 nM, 48 hours, 15PC3 cells) was 6.9 x (25 nM, 48 hours). For the same substance, the “Fold induction of apoptosis, Caspase 3/7 assay” value in series [1] (24 hours, 5 nM, 15PC3 cells, relative to mock) is recorded as 3.5 x. In series [2], the clinical signs result is “no notable clinical signs”; the “liver and kidney toxicity” value was “evidence of liver and kidney toxicity was apparent in all animals”. The “Survivin protein level in tumours” value in series [3] was “reduced levels of both mRNA and Survivin protein”. The “Survivin mRNA level in tumours” value in series [4] is “reduced levels of both mRNA and Survivin protein”.
